Assay results reported in patent publication US20260242419A1, “A CYCLIC PEPTIDE FOR TRAPPING INTERLEUKIN-1 BETA” (Merck Sharp & Dohme LLC, priority 2023, published 2026).
Starred links: 1 amine or outer side, 2 acyl side, 3 side chain; linkers in the order of their positions; H or OH if unused. Non-standard residues stand in square brackets, D forms with d. Residues, ends and D or L forms follow the SMILES beside them. Trp(4-Cl)(βS-Me) = C[C@@H](c1c[nH]c2cccc(Cl)c12)[C@H](N)C(=O)O; Trp(βS-Me,4-F) = C[C@@H](c1c[nH]c2cccc(F)c12)[C@H](N)C(=O)O; Bip(4'-COOH) = N[C@@H](Cc1ccc(-c2ccc(C(=O)O)cc2)cc1)C(=O)O; dPro(4R-Bzl(4-F)) = O=C(O)[C@H]1C[C@@H](Cc2ccc(F)cc2)CN1; 1Nal(3S-Me) = C[C@@H](c1cccc2ccccc12)[C@H](N)C(=O)O; Ala(pyrimidin-5-yl) = N[C@@H](Cc1cncnc1)C(=O)O; Phe(4-COOH) = N[C@@H](Cc1ccc(C(=O)O)cc1)C(=O)O; dαMeDab = C[C@](CCN[*:3])(N[*:1])C(=O)[*:2]; Pro(cis-4-F) = O=C(O)[C@@H]1C[C@H](F)CN1; X10 = C[C@@](CCN)(N[*:1])C(=O)[*:2]; aIle = CC[C@@H](C)[C@H](N)C(=O)O; 4Pal = N[C@@H](Cc1ccncc1)C(=O)O; aThr = C[C@H](O)[C@H](N)C(=O)O; αMeD = C[C@](N)(CC(=O)O)C(=O)O; αMeK = C[C@](N)(CCCCN)C(=O)O; hSer = N[C@@H](CCO)C(=O)O; Dab = NCC[C@H](N)C(=O)O; Aib = CC(C)(N)C(=O)O; Sar = CNCC(=O)O

Target: T1, IL-1β (Homo sapiens, UniProt P01584)
T1 construct: purchased BioLegend 579404
T1 sequence (P01584 117-269): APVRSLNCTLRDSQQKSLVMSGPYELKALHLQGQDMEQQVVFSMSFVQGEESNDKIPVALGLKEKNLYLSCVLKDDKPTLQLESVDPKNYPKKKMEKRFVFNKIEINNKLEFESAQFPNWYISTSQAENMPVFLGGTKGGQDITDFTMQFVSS
Test: IL-6 assay in MRC5 cells: inhibition of IL-1β induced IL-6 secretion (AlphaLISA)
Format: cell-based
Conditions: inhibition of IL-1β induced IL-6 secretion in MRC5 cells; read-out: MRC5 IC50
In short: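 Compound was pre-incubated 1 h at ambient temperature with recombinant human IL-1β at 2λ EC80 before adding human lung fibroblast MRC5 cells (3000/well) in EMEM with 0.025% BSA. After overnight culture at 37 °C, 5% CO2, secreted IL-6 in conditioned medium was measured by AlphaLISA; IC50 from 4-parameter logistic fits.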

Row | Compound | IC50
1 | C[C@@H](c1c[nH]c2cccc(F)c12)[C@@H]1NC(=O)[C@@H]2C[C@H](F)CN2C(=O)CNC(=O)[C@H](Cc2ccc(C(=O)O)cc2)NC(=O)[C@H](Cc2ccncc2)NC(=O)[C@H](Cc2ccc(-c3ccc(C(=O)O)cc3)cc2)NC(=O)[C@H]2C[C@@H](Cc3ccc(F)cc3)CN2C(=O)CN(C)C(=O)[C@H](CCN)NC(=O)[C@H](CCC(N)=O)NC(=O)[C@H](Cc2cncnc2)NC(=O)[C@](C)(CCCCN)NC(=O)[C@H](Cc2c[nH]c3ccccc23)NC(=O)[C@H](CCC(=O)O)NC(=O)C(C)(C)NC1=O [Example 132] (cyclo([Bip(4'-COOH)][4Pal][Phe(4-COOH)]G[Pro(cis-4-F)][Trp(βS-Me,4-F)][Aib]EW[αMeK][Ala(pyrimidin-5-yl)]Q[Dab][Sar][dPro(4R-Bzl(4-F))])) | 15 pM
2 | C[C@@H](c1c[nH]c2cccc(F)c12)[C@@H]1NC(=O)[C@@H]2C[C@H](F)CN2C(=O)CNC(=O)[C@H](Cc2ccc(C(=O)O)cc2)NC(=O)[C@H](Cc2ccncc2)NC(=O)[C@H](Cc2ccc(-c3ccc(C(=O)O)cc3)cc2)NC(=O)[C@H]2C[C@@H](Cc3ccc(F)cc3)CN2C(=O)CNC(=O)[C@H](CCN)NC(=O)[C@H](CCC(N)=O)NC(=O)[C@H](Cc2cncnc2)NC(=O)[C@](C)(CCCCN)NC(=O)[C@H](Cc2c[nH]c3ccccc23)NC(=O)[C@H](CCO)NC(=O)C(C)(C)NC1=O [Example 133] (cyclo([Bip(4'-COOH)][4Pal][Phe(4-COOH)]G[Pro(cis-4-F)][Trp(βS-Me,4-F)][Aib][hSer]W[αMeK][Ala(pyrimidin-5-yl)]Q[Dab]G[dPro(4R-Bzl(4-F))])) | 21 pM
3 | C[C@@H]1NC(=O)C(C)(C)NC(=O)[C@H]([C@@H](C)c2c[nH]c3cccc(F)c23)NC(=O)[C@@H]2C[C@H](F)CN2C(=O)CNC(=O)[C@H](Cc2ccc(C(=O)O)cc2)NC(=O)[C@H](Cc2ccncc2)NC(=O)[C@H](Cc2ccc(-c3ccc(C(=O)O)cc3)cc2)NC(=O)[C@H]2C[C@@H](Cc3ccc(F)cc3)CN2C(=O)CNC(=O)[C@H](CCN)NC(=O)[C@H](CCC(N)=O)NC(=O)[C@H](Cc2cncnc2)NC(=O)[C@](C)(CCCCN)NC(=O)[C@H](Cc2c[nH]c3ccccc23)NC1=O [Example 134] (cyclo([Bip(4'-COOH)][4Pal][Phe(4-COOH)]G[Pro(cis-4-F)][Trp(βS-Me,4-F)][Aib]AW[αMeK][Ala(pyrimidin-5-yl)]Q[Dab]G[dPro(4R-Bzl(4-F))])) | 21 pM
4 | CC(C)[C@@H]1NC(=O)C(C)(C)NC(=O)[C@H]([C@@H](C)c2c[nH]c3cccc(F)c23)NC(=O)[C@@H]2C[C@H](F)CN2C(=O)CNC(=O)[C@H](Cc2ccc(C(=O)O)cc2)NC(=O)[C@H](Cc2ccncc2)NC(=O)[C@H](Cc2ccc(-c3ccc(C(=O)O)cc3)cc2)NC(=O)[C@H]2C[C@@H](Cc3ccc(F)cc3)CN2C(=O)CNC(=O)[C@H](CCN)NC(=O)[C@H](CCC(N)=O)NC(=O)[C@H](Cc2cncnc2)NC(=O)[C@](C)(CCCCN)NC(=O)[C@H](Cc2c[nH]c3ccccc23)NC1=O [Example 135] (cyclo([Bip(4'-COOH)][4Pal][Phe(4-COOH)]G[Pro(cis-4-F)][Trp(βS-Me,4-F)][Aib]VW[αMeK][Ala(pyrimidin-5-yl)]Q[Dab]G[dPro(4R-Bzl(4-F))])) | 35 pM
5 | CC[C@@H](C)[C@@H]1NC(=O)C(C)(C)NC(=O)[C@H]([C@@H](C)c2c[nH]c3cccc(F)c23)NC(=O)[C@@H]2C[C@H](F)CN2C(=O)CNC(=O)[C@H](Cc2ccc(C(=O)O)cc2)NC(=O)[C@H](Cc2ccncc2)NC(=O)[C@H](Cc2ccc(-c3ccc(C(=O)O)cc3)cc2)NC(=O)[C@H]2C[C@@H](Cc3ccc(F)cc3)CN2C(=O)CNC(=O)[C@H](CCN)NC(=O)[C@H](CCC(N)=O)NC(=O)[C@H](Cc2cncnc2)NC(=O)[C@](C)(CCCCN)NC(=O)[C@H](Cc2c[nH]c3ccccc23)NC1=O [Example 136] (cyclo([Bip(4'-COOH)][4Pal][Phe(4-COOH)]G[Pro(cis-4-F)][Trp(βS-Me,4-F)][Aib][aIle]W[αMeK][Ala(pyrimidin-5-yl)]Q[Dab]G[dPro(4R-Bzl(4-F))])) | 27 pM
6 | C[C@@H](O)[C@@H]1NC(=O)C(C)(C)NC(=O)[C@H]([C@@H](C)c2c[nH]c3cccc(F)c23)NC(=O)[C@@H]2C[C@H](F)CN2C(=O)CNC(=O)[C@H](Cc2ccc(C(=O)O)cc2)NC(=O)[C@H](Cc2ccncc2)NC(=O)[C@H](Cc2ccc(-c3ccc(C(=O)O)cc3)cc2)NC(=O)[C@H]2C[C@@H](Cc3ccc(F)cc3)CN2C(=O)CNC(=O)[C@H](CCN)NC(=O)[C@H](CCC(N)=O)NC(=O)[C@H](Cc2cncnc2)NC(=O)[C@](C)(CCCCN)NC(=O)[C@H](Cc2c[nH]c3ccccc23)NC1=O [Example 137] (cyclo([Bip(4'-COOH)][4Pal][Phe(4-COOH)]G[Pro(cis-4-F)][Trp(βS-Me,4-F)][Aib]TW[αMeK][Ala(pyrimidin-5-yl)]Q[Dab]G[dPro(4R-Bzl(4-F))])) | 22 pM
7 | C[C@H](O)[C@@H]1NC(=O)C(C)(C)NC(=O)[C@H]([C@@H](C)c2c[nH]c3cccc(F)c23)NC(=O)[C@@H]2C[C@H](F)CN2C(=O)CNC(=O)[C@H](Cc2ccc(C(=O)O)cc2)NC(=O)[C@H](Cc2ccncc2)NC(=O)[C@H](Cc2ccc(-c3ccc(C(=O)O)cc3)cc2)NC(=O)[C@H]2C[C@@H](Cc3ccc(F)cc3)CN2C(=O)CNC(=O)[C@H](CCN)NC(=O)[C@H](CCC(N)=O)NC(=O)[C@H](Cc2cncnc2)NC(=O)[C@](C)(CCCCN)NC(=O)[C@H](Cc2c[nH]c3ccccc23)NC1=O [Example 138] (cyclo([Bip(4'-COOH)][4Pal][Phe(4-COOH)]G[Pro(cis-4-F)][Trp(βS-Me,4-F)][Aib][aThr]W[αMeK][Ala(pyrimidin-5-yl)]Q[Dab]G[dPro(4R-Bzl(4-F))])) | 21 pM
8 | C[C@@H](c1cccc2ccccc12)[C@@H]1NC(=O)[C@@H]2C[C@H](F)CN2C(=O)CNC(=O)[C@H](Cc2ccc(C(=O)O)cc2)NC(=O)[C@H](Cc2ccncc2)NC(=O)[C@H](Cc2ccc(-c3ccc(C(=O)O)cc3)cc2)NC(=O)[C@H]2C[C@@H](Cc3ccc(F)cc3)CN2C(=O)CNC(=O)[C@H](CCN)NC(=O)[C@H](CCC(N)=O)NC(=O)[C@H](Cc2cncnc2)NC(=O)C(C)(C)NC(=O)[C@H](Cc2c[nH]c3ccccc23)NC(=O)[C@H](CO)NC(=O)C(C)(C)NC1=O [Example 140] (cyclo([Bip(4'-COOH)][4Pal][Phe(4-COOH)]G[Pro(cis-4-F)][1Nal(3S-Me)][Aib]SW[Aib][Ala(pyrimidin-5-yl)]Q[Dab]G[dPro(4R-Bzl(4-F))])) | 33 pM
9 | C[C@@H](c1c[nH]c2cccc(F)c12)[C@@H]1NC(=O)[C@@H]2C[C@H](F)CN2C(=O)CNC(=O)[C@H](Cc2ccc(C(=O)O)cc2)NC(=O)[C@H](Cc2ccncc2)NC(=O)[C@H](Cc2ccc(-c3ccc(C(=O)O)cc3)cc2)NC(=O)[C@H]2C[C@@H](Cc3ccc(F)cc3)CN2C(=O)CNC(=O)[C@H](CCN)NC(=O)[C@H](CCC(N)=O)NC(=O)[C@H](Cc2cncnc2)NC(=O)[C@](C)(CC(=O)O)NC(=O)[C@H](Cc2c[nH]c3ccccc23)NC(=O)[C@H](CO)NC(=O)C(C)(C)NC1=O [Example 141] (cyclo([Bip(4'-COOH)][4Pal][Phe(4-COOH)]G[Pro(cis-4-F)][Trp(βS-Me,4-F)][Aib]SW[αMeD][Ala(pyrimidin-5-yl)]Q[Dab]G[dPro(4R-Bzl(4-F))])) | 11 pM

The next lines start with the values.

Row | IC50 | Compound
10 | 39 pM | C[C@@H](c1c[nH]c2cccc(F)c12)[C@@H]1NC(=O)[C@@H]2C[C@H](F)CN2C(=O)CNC(=O)[C@H](Cc2ccc(C(=O)O)cc2)NC(=O)[C@H](Cc2ccncc2)NC(=O)[C@H](Cc2ccc(-c3ccc(C(=O)O)cc3)cc2)NC(=O)[C@H]2C[C@@H](Cc3ccc(F)cc3)CN2C(=O)CNC(=O)[C@H](CCN)NC(=O)[C@H](CCC(N)=O)NC(=O)[C@H](Cc2cncnc2)NC(=O)[C@](C)(CCN)NC(=O)[C@H](Cc2c[nH]c3ccccc23)NC(=O)[C@H](CO)NC(=O)C(C)(C)NC1=O [Example 130] (cyclo([Bip(4'-COOH)][4Pal][Phe(4-COOH)]G[Pro(cis-4-F)][Trp(βS-Me,4-F)][Aib]SW[X10][Ala(pyrimidin-5-yl)]Q[Dab]G[dPro(4R-Bzl(4-F))]))
11 | 19 pM | C[C@@H](c1c[nH]c2cccc(F)c12)[C@@H]1NC(=O)[C@@H]2C[C@H](F)CN2C(=O)CNC(=O)[C@H](Cc2ccc(C(=O)O)cc2)NC(=O)[C@H](Cc2ccncc2)NC(=O)[C@H](Cc2ccc(-c3ccc(C(=O)O)cc3)cc2)NC(=O)[C@H]2C[C@@H](Cc3ccc(F)cc3)CN2C(=O)CNC(=O)[C@H](CCN)NC(=O)[C@H](CCC(N)=O)NC(=O)[C@H](Cc2cncnc2)NC(=O)C(C)(C)NC(=O)[C@H](Cc2c[nH]c3ccccc23)NC(=O)[C@H](CO)NC(=O)[C@@](C)(CCN)NC1=O [Example 131] (cyclo([Bip(4'-COOH)][4Pal][Phe(4-COOH)]G[Pro(cis-4-F)][Trp(βS-Me,4-F)][dαMeDab]SW[Aib][Ala(pyrimidin-5-yl)]Q[Dab]G[dPro(4R-Bzl(4-F))]))
12 | 34 pM | C[C@@H](c1c[nH]c2cccc(Cl)c12)[C@@H]1NC(=O)[C@@H]2C[C@H](F)CN2C(=O)CNC(=O)[C@H](Cc2ccc(C(=O)O)cc2)NC(=O)[C@H](Cc2ccncc2)NC(=O)[C@H](Cc2ccc(-c3ccc(C(=O)O)cc3)cc2)NC(=O)[C@H]2C[C@@H](Cc3ccc(F)cc3)CN2C(=O)CNC(=O)[C@H](CCN)NC(=O)[C@H](CCC(N)=O)NC(=O)[C@H](Cc2cncnc2)NC(=O)C(C)(C)NC(=O)[C@H](Cc2c[nH]c3ccccc23)NC(=O)[C@H](CO)NC(=O)C(C)(C)NC1=O [Example 139] (cyclo([Bip(4'-COOH)][4Pal][Phe(4-COOH)]G[Pro(cis-4-F)][Trp(4-Cl)(βS-Me)][Aib]SW[Aib][Ala(pyrimidin-5-yl)]Q[Dab]G[dPro(4R-Bzl(4-F))]))
13 | 19 pM | C[C@@H](c1c[nH]c2cccc(F)c12)[C@@H]1NC(=O)[C@@H]2C[C@H](F)CN2C(=O)CNC(=O)[C@H](Cc2ccc(C(=O)O)cc2)NC(=O)[C@H](Cc2ccncc2)NC(=O)[C@H](Cc2ccc(-c3ccc(C(=O)O)cc3)cc2)NC(=O)[C@H]2C[C@@H](Cc3ccc(F)cc3)CN2C(=O)CNC(=O)[C@H](CCN)NC(=O)[C@H](CCC(N)=O)NC(=O)[C@H](Cc2cncnc2)NC(=O)[C@@](C)(CCN)NC(=O)[C@H](Cc2c[nH]c3ccccc23)NC(=O)[C@H](CO)NC(=O)C(C)(C)NC1=O [Example 142] (cyclo([Bip(4'-COOH)][4Pal][Phe(4-COOH)]G[Pro(cis-4-F)][Trp(βS-Me,4-F)][Aib]SW[dαMeDab][Ala(pyrimidin-5-yl)]Q[Dab]G[dPro(4R-Bzl(4-F))]))
